# Experimental data from ChEMBL document CHEMBL5727805, “Bicyclic quinazolinone derivatives” (2020).
# Target: Autotaxin (Homo sapiens, UniProt Q13822)
# Test: Human ATX Enzyme Inhibition Assay: ATX inhibition was measured by a fluorescence quenching assay using a specifically labeled substrate analogue (MR121 substrate). To obtain this MR121 substrate, BOC and TBS protected 6-amino-hexanoic acid (R)-3-({2-[3-(2-{2-[2-(2-amino-ethoxy)-ethoxy]-ethoxy}-ethoxy)-propionylamino]-ethoxy}-hydroxy-phosphoryloxy)-2-hydroxy-propyl ester (Ferguson et al., Org. Lett. 2006, 8, 2023) was labeled with MR121 fluorophore [CAS RN 185308-24-1], 1-(3-carboxypropyl)-11-ethyl-1,2,3,4,8,9,10,11-octahydro-dipyrido[3,2-b:2′,3′-i]phenoxazin-13-ium) on the free amine of the ethanolamine side and then, after deprotection, subsequently with tryptophan on the side of the aminohexanoic acid.Assay working solutions were made as follows:Assay buffer (50 mM Tris-HCl, 140 mM NaCl, 5 mM KCl, 1 mM CaCl2, 1 mM MgCl2, 0.01% Triton-X-100, pH 8.0;ATX solution: ATX (human His-tagged) stock solution (1.08 mg/mL in 20 mM bicine, pH 8.5, 0.15 M NaCl, 10% glycerol, 0.3% CHAPS, 0.02% NaN3), diluted to 1.4-2.5× final concentration in assay buffer;MR121 substrate solution: MR121 substrate stock solution (800 μM MR121 substrate in DMSO), diluted to 2-5× final concentration in assay buffer.Test compounds (10 mM stock in DMSO, 8 μL) were obtained in 384 well sample plates (Corning Costar #3655) and diluted with 8 μL DMSO. […]
structure (smiles),measurement,value
CC(=O)N1CCCN(c2ccc3ncn(CC(=O)NCc4ccc(Cl)c(Cl)c4)c(=O)c3c2)CC1,IC50,35 nM
